Data as given in patent US20120190751A1, “COMPOUNDS FOR TREATMENTS OF INFLAMMATION” (ANA-MAR AB, priority 2009, published 2012).
“Also recorded” adds a separate entry of the source.

What was measured:
5HT2B receptor = 5HT2B receptor (Homo sapiens, UniProt P41595); assay: Radio-ligand binding assay 5-HT2B
Procedure: (§1) Determination of binding affinities for various 5-HT receptors was performed by radio-ligand binding assays. Briefly, tissue or cells expressing the receptor of interest were suspended in incubation buffer and radio-ligands and 10 μM N-(2-chloro-3,4-dimethoxybenzylidene-amino)guanidine were added. After incubation, separation of bound and free radio-ligand was done by multiple washings with buffer.
(§2) The results were presented as the percent inhibition of specific binding. The IC50 values were determined by a non-linear least square regression analysis using MathIQ™ (ID Business Solution Ltd., UK). The inhibition constants (Ki) were calculated using the equation of Cheng and Prusoff (Cheng Y, Prusoff W H, Biochem. Pharmacol. 22:3099-3108, 1973) using the observed IC50 of the tested compound, the concentration of radioligand employed in the assay and the historical values for the KD of the ligand.

rat synoviocytes = assay: IL-6 release from LPS-stimulated rat synoviocytes; type: cell-based; conditions: 72 hours
Procedure: Pannus from the inflamed knee of rats with antigen-induced arthritis (AIA) (see description of this model below; Andersson, S. E et al., (1998), J. Rheumatology 25: 1772-1777) was isolated three to five days after challenge, stored in PBS supplemented with 100 U/ml Penicillin-Streptomycin (PEST, Invitrogen Corporation) and 2.5 μg/ml Fungizone (Amphotericin B, Invitrogen) until it was further processed within a couple of hours. The PBS was discarded and the tissue cut in small pieces followed by digestion in a collagenase solution (400 U/ml; type 1 CLS-1, Worthington) for 3 hours at 37° C., 5% CO2. The suspension was filtered through a nylon mesh (70 μm), washed with tissue culture medium (RPMI-1640 with L-glutamine, Invitrogen, supplemented with 10% fetal bovine serum (FBS) and 100 U/ml PEST and 2.5 μg/ml Fungizone) and centrifuged (257 g). The cells were resuspended in tissue culture medium and seeded in cell culture flasks (T25, TPP). After overnight culture, nonadherent cells were removed by exchanging the medium, the cells were incubated at 37° C., 5% CO2, the medium was exchanged every third day until confluence was reached (7-10 days). The culture consisted of a mixed cell population with the principal constituents being fibroblasts and macrophages (Andersson, S. E. et al. (2000), Eur. J. Pharm. Sci 9: 333-343).
The cells were counted and reseeded at a density of 10000 cells/0.2 ml in 96-well cell culture plates (Nunc). After overnight culture the cells were stimulated with 50 ng/ml Lipopolysaccharide (LPS, E. coli 055:B5, Sigma) with simultaneous addition of 0.1, 1 and 10 μM N-(2-chloro-3,4-dimethoxybenzylideneamino)guanidine and 1 μM of 5-HT2 receptor agonists (triplicates). The cells were incubated for 72 hours after which the supernatants were collected and analyzed for IL-6 (OptEIA™ Set Rat IL-6). The effect of treatment on cell viability was determined using the cell proliferation reagent, WST-1 (Roche Diagnostics).
Inflamed knee joints of rats with antigen-induced arthritis (AIA) were dissected four days after intra-articular challenge with antigen. Freshly isolated pannus tissue was collected in phosphate-buffered saline (PBS) supplemented with 100 U/ml penicillin, streptomycin (PEST, Invitrogen) and 2.5 μg/ml Fungizone (Amphotericin B, Invitrogen), finely minced with a pair of scissors and digested with 400 U/ml collagenase (type 1 CLS-1, Worthington) in RPMI 1640 (Gibco) supplemented with PEST and fungizone (2.5 μg/ml) for 3 hours. The cell suspension was filtered through a 70 μm nylon mesh and the cells collected by centrifugation at 257×g, 10 min. The cells were resuspended in RPMI 1640 supplemented with 10% FBS (Gibco), PEST and fungizone (culture medium), plated in T25 flasks (TPP Cat#90026). After overnight incubation nonadherent cells were removed and the culture medium was replaced every third day until the cells approached confluency (normally achieved within 7-10 days). At near-confluency, the cells were washed with PBS and harvested by trypsination. After washing in PBS the cells were resuspended in culture medium and seeded at 10.000 cells/well/0.2 ml in 96 well plates (Nunc cat#167008). After overnight culture the culture medium was replaced with fresh medium and 50 ng/ml LPS (Sigma, L6529) together with different concentrations of 5-HT, 5-HT2 receptor agonists and/or antagonists and N-(2-chloro-3,4-dimethoxybenzylideneamino)guanidine. The cells were incubated for 72 hours after which the supernatants were collected and analyzed for IL-6 (BD OptEIA™ Set). The effect of treatment on cell viability was determined using the cell proliferation reagent, WST-1 (Roche Diagnostics). In another experiment rat synoviocytes were incubated with 50 ng/ml LPS for 2 or 22 hours were after the levels of 5-HT was analysed in the cell culture medium using a Serotonin ELISA kit (IBL International, RE59121). We also incubated rat synoviocytes with 5-HT (10 μM) and measured the gene expression of 5-HT2B and 5-HT2C.

5-HT5A receptor = 5-HT5A receptor (Homo sapiens, UniProt P47898); assay: Radio-ligand binding assay 5-HT5A; conditions: 10 μM compound; [3H] LSD 1 nM; human rec. HEK293 cells
5-HT5A receptor, sequence (P47898 whole entry): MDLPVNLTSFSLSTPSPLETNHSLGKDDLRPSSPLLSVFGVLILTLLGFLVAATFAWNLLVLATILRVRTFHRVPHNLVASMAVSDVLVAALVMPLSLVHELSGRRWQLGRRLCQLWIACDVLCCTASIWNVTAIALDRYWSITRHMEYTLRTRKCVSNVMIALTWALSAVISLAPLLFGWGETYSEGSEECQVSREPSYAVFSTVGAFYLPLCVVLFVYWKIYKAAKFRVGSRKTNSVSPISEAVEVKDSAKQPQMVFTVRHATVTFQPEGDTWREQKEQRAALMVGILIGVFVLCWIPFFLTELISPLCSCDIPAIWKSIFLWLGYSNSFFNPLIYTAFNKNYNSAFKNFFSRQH
Procedure: as §1, §2

5HT2B receptor, sequence (P41595 whole entry): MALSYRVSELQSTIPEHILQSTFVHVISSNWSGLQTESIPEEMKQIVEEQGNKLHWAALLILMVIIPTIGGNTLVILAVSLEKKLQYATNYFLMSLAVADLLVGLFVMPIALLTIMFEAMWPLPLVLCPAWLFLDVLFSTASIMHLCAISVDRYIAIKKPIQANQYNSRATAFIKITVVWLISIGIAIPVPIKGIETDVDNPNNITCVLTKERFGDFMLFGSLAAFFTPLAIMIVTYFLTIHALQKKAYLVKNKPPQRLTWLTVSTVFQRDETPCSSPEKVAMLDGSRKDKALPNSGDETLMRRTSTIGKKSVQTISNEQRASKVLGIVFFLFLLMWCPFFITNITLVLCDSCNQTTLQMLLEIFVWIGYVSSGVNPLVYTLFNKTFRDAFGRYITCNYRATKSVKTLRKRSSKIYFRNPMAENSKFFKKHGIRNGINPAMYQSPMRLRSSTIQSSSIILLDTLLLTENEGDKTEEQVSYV

SMILES: COc1ccc(C=NNC(=N)N)c(Cl)c1OC [N-(2-chloro-3,4-dimethoxybenzylideneamino)guanidine]
- inhibition at 10 µM (5HT2B receptor; 10 μM compound, [3H] LSD 1.2 nM, human rec. CHO.K1 cells): 107%
- Ki (5HT2B receptor; 10 different concentrations, Cheng-Prusoff, FIG. 1): 263 nM
- IL-6 release induced by 5-HT and LPS (rat synoviocytes; 1 μM 5-HT + LPS 50 ng/ml, test substance 0.1, 1 or 10 μM, FIG. 7A): reduces the IL-6 response
- IL-6 production induced by BW 723C86 (5-HT2B agonist) and LPS (rat synoviocytes; 1 μM BW 723C86 + LPS 50 ng/ml, compound 0.1, 1, 10 μM, FIG. 4, FIG. 7B): in a dose-dependent way is counteracted; also recorded: reversed the effects
- IL-6 production induced by CP 809101 (5-HT2C agonist) and LPS (rat synoviocytes; 1 μM CP 809101 + LPS 50 ng/ml, compound 0.1, 1, 10 μM, FIG. 4, FIG. 7B): is counteracted; also recorded: reversed the effects
- inhibition at 10 µM (5-HT5A receptor): 54%
